Experimental data taken from patent publication US7119207B2, “Benzoamide piperidine containing compounds and related compounds” (Pfizer INC, priority 2000, dated 2006).
Counter-ions that a name gives are not always drawn.

Structure (SMILES): CCN1C(=O)CCc2cc(OC)c(CNC3CCCNC3c3ccccc3)cc21 (stereo not drawn) (as salt: hydrochloride) [Example 2, 1-Ethyl-6-methoxy-7-[(2-phenyl-piperidin-3-ylamino)-methyl]-3,4-dihydro-1H-quinolin-2-one]
- melting point: 253 to 255 °C

Structure (SMILES): COc1cc2c(cc1CN[C@H]1CCCN(C)[C@H]1c1ccccc1)C(C)(C)C(=O)N2C (as salt: hydrochloride) [Example 14, 5-[{(2S,3S)-1-Methyl-2-phenyl-piperidin-3-ylamino}-methyl]-6-methoxy-1,3,3-trimethyl-1,3-dihydro-indol-2-one]
- melting point: > 250 °C (dec.)

Structure (SMILES): COc1cc2c(cc1CNC1CCCNC1c1ccccc1)NC(=O)CC2 (stereo not drawn) (as salt: HCl) [Example 1, 6-Methoxy-7-[(2-phenyl-piperidin-3-ylamino)-methyl]-3,4-dihydro-1H-quinolin-2-one]
- melting point: 233 to 235 °C

Structure (SMILES): COc1cc2c(cc1CN[C@H]1CCCN(Cc3n[nH]c(=O)[nH]3)[C@H]1c1ccccc1)C(C)(C)C(=O)N2C [Example 18, 6-Methoxy-1,3,3-trimethyl-5-{[(2S,3S)-1-(5-oxo-4,5-dihydro-1H-[1,2,4]triazol-3-ylmethyl)-2-phenyl-piperidin-3-ylamino]-methyl}-1,3-dihydro-indol-2-one]
- melting point: > 250 °C (dec.)

Structure (SMILES): COc1cc2c(c(F)c1CNC1CCCNC1c1ccccc1)N(C)C(=O)CC2(C)C (stereo not drawn) (as salt: hydrochloride) [Example 5, 8-Fluoro-6-methoxy-1,4,4-trimethyl-7-[(2-phenyl-piperidin-3-ylamino)-methyl]-3,4-dihydro-1H-quinolin-2-one]
- melting point: > 270 °C

Structure (SMILES): COc1cc2c(cc1CNC1CCCNC1c1ccccc1)N(S(C)(=O)=O)C(=O)CC2 (stereo not drawn) (as salt: hydrochloride) [Example 3, 1-Methanesulfonyl-6-methoxy-7-[(2-phenyl-piperidin-3-ylamino)-methyl]-3,4-dihydro-1H-quinolin-2-one]
- melting point: 237 to 241 °C

Structure (SMILES): COc1cc2c(cc1CN[C@H]1CCCN(C(=O)C(F)(F)F)[C@H]1c1ccccc1)N(C)C(=O)CC2 (as salt: hydrochloride) [Example 10, 6-Methoxy-1-methyl-7-[(2S,3S)-(2-phenyl-1-trifluoroacetyl-piperidin-3-ylamino)-methyl]-3,4-dihydro-1H-quinolin-2-one]
- melting point: 222 to 224 °C (dec.)

Structure (SMILES): CCC1CCC(NCc2cc3c(cc2OC)C2CC2C(=O)N3C)C(c2ccccc2)N1 (stereo not drawn) [Example 85, 5-[(6-Ethyl-2-phenyl-piperidin-3-ylamino)-methyl]-6-methoxy-3-methyl-1,1a,3,7b-tetrahydro-3-aza-cyclopropa[a]naphthalen-2-one]
- melting point: 231 to 234 °C (dec.)

Structure (SMILES): COc1cc2c(cc1CNC1CCCNC1c1ccccc1)N(C)C(=O)CC2(C)C (stereo not drawn) (as salt: hydrochloride) [Example 4, 6-Methoxy-1,4,4-trimethyl-7-[(2-phenyl-piperidin-3-ylamino)-methyl]-3,4-dihydro-1H-quinolin-2-one]
- melting point: > 280 °C
